The data set in a line: Local delivery of drug in charged liposomes/micelles from a hydrogel-coated metal mesh catheter by iontophoresis. The settings on record: iontophoresis 5 mA, 8 V, 10 minutes.

Method: Liposome or micelles were prepared by mixing 3.0 mg of phosphatidylcholine, 3.0 mg of cholesterol and 0.3 mg of phosphatidylserine in a test tube. Chloroform (200 microliters) was added and the solution was evaporated to dryness in a test tube. 7-Amino Actinomycin D (500 mg) was dissolved in 8 mM CaCl2 for a final concentration of 0.5 mg/ml. The 7-Amino Actinomycin D solution was added to the lipid mixture in small aliquots with constant stirring. The hydrogel-coated metal mesh catheter was placed in the 7-amino Actinomycin D/liposome or micelle mixture and then used for drug delivery in the following manner: The hydrogel-coated metal mesh catheter was placed in the 7-Amino Actinomycin D/liposome or micelle mixture and then removed. In some cases, the hydrogel-coated mesh portion of the catheter was covered with a retractable sheath to prevent loss of the compound during the transport of the catheter from the arterial access site to the target site. When the catheter was positioned at the target site the sheath was retracted and the mesh was expanded against the arterial wall. Iontophoersis was performed by applying an electrical current to the mesh. […] In this example the iontophoresis parameters were 5 mA, and 8 V, applied for 10 minutes.

As for `Cc1c2oc3c(C)c(N)cc(C(=O)N[C@@H]4C(=O)N[C@H](C(C)C)C(=O)N5CCC[C@H]5C(=O)N(C)CC(=O)N(C)[C@@H](C(C)C)C(=O)O[C@@H]4C)c3nc-2c(C(=O)N[C@@H]2C(=O)N[C@H](C(C)C)C(=O)N3CCC[C@H]3C(=O)N(C)CC(=O)N(C)[C@@H](C(C)C)C(=O)O[C@@H]2C)c(N)c1=O` [7-Amino Actinomycin D], the “distribution of the fluorescent compound in the vessel after local delivery” value (7-Amino Actinomycin D/liposome or micelle mixture (phosphatidylcholine, cholesterol, phosphatidylserine)) is “throughout the vessel wall and in the outer layer of the vessel”. Besides, for the setting “7-Amino Actinomycin D/liposome or micelle mixture”, the “localization in the cells of the vessel after local delivery” value was “evidence of localization of the 7-Amino Actinomycin D in the nuclei of the cells”.

For the origin of these results see patent US20040034336A1, “Charged liposomes/micelles with encapsulted medical compounds” (priority 2002, published 2004).
